In patent US8592629B2, “Sulfonamide derivatives as Nav 1.7 inhibitors” (Pfizer Limited, priority 2010, dated 2013):

Target: T1, Nav1.7 (or SCN9A) channel (Homo sapiens, UniProt Q15858)
T1 construct: expressed in transfected cells
Experiment: Nav1.7 (hSCN9A) block in HEK cells, PatchXpress 7000 automated electrophysiology, estimated IC50 (EIC50)
Assay type: cell-based
Details: PatchXpress assay; HEK cells stably transfected with hSCN9A, voltage-clamped at V1/2 of inactivation
Procedure: The ability of the compounds of formula (I) to block the Nav1.7 (or SCN9A) channel were measured using the assay described below.
Human Embryonic Kidney (HEK) cells were transfected with an hSCN9A construct using lipofectamine reagent (Invitrogen), using standard techniques. Cells stably expressing the hSCN9A constructs were identified by their resistance to G-418 (400 μg/ml). Clones were screened for expression using the whole-cell voltage-clamp technique.
HEK cells stably transfected with hSCN9A were maintained in DMEM medium supplemented with 10% heat-inactivated fetal bovine serum and 400 μg/ml G-418 in an incubator at 37° C. with a humidified atmosphere of 10% CO2. For HTS, cells were harvested from flasks by trypsinization and replated in an appropriate multi-well plate (typically 96 or 384 wells/plate) such that confluence would be achieved within 24 hours of plating. For electrophysiological studies, cells were removed from the culture flask by brief trypsinization and re-plated at low density onto glass cover slips. Cells were typically used for electrophysiological experiments within 24 to 72 hours after plating.
HEK cells stably transfected with hSCN9A were viewed under Hoffman contrast optics and placed in front of an array of flow pipes emitting either control or compound-containing extracellular solutions. All compounds were dissolved in dimethyl sulfoxide to make 10 mM stock solutions, which were then diluted into extracellular solution to attain the final concentrations desired. […] The voltage-dependence of inactivation was determined by applying a series of depolarizing prepulses (8 sec long in 10 mV increments) from a negative holding potential. The voltage was then immediately stepped to 0 mV to assess the magnitude of the sodium current. Currents elicited at 0 mV were plotted as a function of prepulse potential to allow estimation of the voltage at which 50% of the channels were inactivated (midpoint of inactivation or V1/2). Compounds were tested for their ability to inhibit hSCN9A sodium channels by activating the channel with a 20 msec voltage step to 0 mV following an 8 second conditioning prepulse to the empirically determined V1/2. Compound effect (% inhibition) was determined by difference in current amplitude before and after application of test compounds. For ease of comparison, “estimated IC-50” (EIC50) values were calculated from single point electrophysiology data by the following equation, (tested concentration, uM) X (100-% inhibition/% inhibition). Inhibition values <20% and >80% were excluded from the calculation.
Electrophysiological assays were conducted with PatchXpress 7000 hardware and associated software (Molecular Devices Corp). All assay buffers and solutions were identical to those used in conventional whole-cell voltage clamp experiments described above. hSCN9A cells were grown as above to 50%-80% confluency and harvested by trypsinization. Trypsinized cells were washed and resuspended in extracellular buffer at a concentration of 1×10^6 cells/ml. The onboard liquid handling facility of the PatchXpress was used for dispensing cells and application of test compounds. Determination of the voltage midpoint of inactivation was as described for conventional whole-cell recordings. Cells were then voltage-clamped to the empirically determined V1/2 and current was activated by a 20 msec voltage step to 0 mV.
Compounds of the Examples were tested in the assays described above and found to have the Nav1.7 EIC50 (μM) values specified in the table below. All data are derived from the PatchXpress assay unless explicitly stated otherwise.

T1 sequence (Q15858 whole entry): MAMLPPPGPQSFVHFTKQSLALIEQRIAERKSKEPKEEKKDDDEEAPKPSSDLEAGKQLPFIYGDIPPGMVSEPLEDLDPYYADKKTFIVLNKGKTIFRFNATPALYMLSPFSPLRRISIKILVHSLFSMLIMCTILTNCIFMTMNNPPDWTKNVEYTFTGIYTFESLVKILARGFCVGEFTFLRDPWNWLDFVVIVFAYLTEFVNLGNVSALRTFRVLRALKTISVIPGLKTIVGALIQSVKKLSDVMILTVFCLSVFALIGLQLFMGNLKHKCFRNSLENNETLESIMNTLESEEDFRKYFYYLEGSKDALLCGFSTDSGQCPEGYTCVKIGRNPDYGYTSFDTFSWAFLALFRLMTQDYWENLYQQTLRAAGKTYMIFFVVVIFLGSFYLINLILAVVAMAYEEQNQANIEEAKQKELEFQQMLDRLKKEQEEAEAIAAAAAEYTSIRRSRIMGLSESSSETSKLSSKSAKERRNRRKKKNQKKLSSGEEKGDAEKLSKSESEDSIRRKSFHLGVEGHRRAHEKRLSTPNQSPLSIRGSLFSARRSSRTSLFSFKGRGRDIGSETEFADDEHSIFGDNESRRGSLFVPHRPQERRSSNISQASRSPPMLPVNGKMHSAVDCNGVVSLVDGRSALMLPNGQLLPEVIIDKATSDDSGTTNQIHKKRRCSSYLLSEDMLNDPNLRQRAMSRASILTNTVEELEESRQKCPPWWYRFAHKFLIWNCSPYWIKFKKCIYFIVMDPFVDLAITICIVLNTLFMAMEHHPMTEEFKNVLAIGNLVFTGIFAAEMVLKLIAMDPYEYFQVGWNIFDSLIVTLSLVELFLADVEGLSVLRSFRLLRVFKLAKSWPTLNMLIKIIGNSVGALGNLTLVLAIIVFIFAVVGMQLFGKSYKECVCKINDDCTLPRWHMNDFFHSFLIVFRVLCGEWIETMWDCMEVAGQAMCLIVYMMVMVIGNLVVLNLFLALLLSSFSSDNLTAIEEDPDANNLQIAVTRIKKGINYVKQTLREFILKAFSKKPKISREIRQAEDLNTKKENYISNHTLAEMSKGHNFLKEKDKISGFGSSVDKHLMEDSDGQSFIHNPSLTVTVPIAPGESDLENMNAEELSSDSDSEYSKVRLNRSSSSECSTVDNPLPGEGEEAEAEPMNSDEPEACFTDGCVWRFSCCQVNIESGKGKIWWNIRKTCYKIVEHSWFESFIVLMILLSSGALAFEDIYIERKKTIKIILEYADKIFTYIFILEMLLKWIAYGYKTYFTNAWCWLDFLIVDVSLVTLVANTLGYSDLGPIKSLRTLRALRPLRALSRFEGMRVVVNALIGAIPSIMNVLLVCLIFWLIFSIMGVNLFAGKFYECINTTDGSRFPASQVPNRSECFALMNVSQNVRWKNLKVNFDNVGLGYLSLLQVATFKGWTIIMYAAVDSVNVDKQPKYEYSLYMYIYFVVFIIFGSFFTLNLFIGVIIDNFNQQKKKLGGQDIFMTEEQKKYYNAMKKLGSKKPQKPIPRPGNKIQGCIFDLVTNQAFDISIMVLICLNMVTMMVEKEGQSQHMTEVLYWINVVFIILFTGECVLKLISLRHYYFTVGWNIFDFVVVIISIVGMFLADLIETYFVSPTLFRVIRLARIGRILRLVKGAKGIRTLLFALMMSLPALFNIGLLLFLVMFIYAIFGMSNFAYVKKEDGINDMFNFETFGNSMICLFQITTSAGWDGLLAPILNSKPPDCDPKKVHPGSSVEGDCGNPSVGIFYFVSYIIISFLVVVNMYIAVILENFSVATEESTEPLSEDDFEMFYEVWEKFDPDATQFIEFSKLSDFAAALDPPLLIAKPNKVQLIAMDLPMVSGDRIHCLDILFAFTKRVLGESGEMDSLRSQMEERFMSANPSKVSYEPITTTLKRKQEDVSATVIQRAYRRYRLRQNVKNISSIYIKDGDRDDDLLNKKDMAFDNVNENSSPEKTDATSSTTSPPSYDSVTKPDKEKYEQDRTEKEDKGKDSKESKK

Row | Compound | IC50 [nM]
1 | CN1CCC(Oc2ncc(Oc3cc(F)c(C(=O)NS(C)(=O)=O)cc3F)cc2Cl)CC1 [Example 67, 4-({5-chloro-6-[(1-methylpiperidin-4-yl)oxy]pyridin-3-yl}oxy)-2,5-difluoro-N-(methylsulfonyl)benzamide] | 9900
2 | CS(=O)(=O)NC(=O)c1cc(F)c(Oc2cnc(C(F)(F)F)c(Cl)c2)cc1F [Example 68, 4-{[5-chloro-6-(trifluoromethyl)pyridin-3-yl]oxy}-2,5-difluoro-N-(methylsulfonyl)benzamide] | 1800
3 | COc1cc(C(=O)NS(C)(=O)=O)ccc1Oc1cnc(OC(C)C)c(Cl)c1 [Example 69, 4-[(5-chloro-6-isopropoxypyridin-3-yl)oxy]-3-methoxy-N-(methylsulfonyl)benzamide] | 250
4 | CC(C)Oc1ncc(Oc2cc(F)c(C(=O)NS(C)(=O)=O)cc2F)cc1F [Example 71, 2,5-difluoro-4-[(5-fluoro-6-isopropoxypyridin-3-yl)oxy]-N-(methylsulfonyl)benzamide] | 1700
5 | COc1c(F)c(Oc2cnc(OC(C)C)c(Cl)c2)cc(F)c1C(=O)NS(C)(=O)=O [Example 72, 4-[(5-chloro-6-isopropoxypyridin-3-yl)oxy]-3,6-difluoro-2-methoxy-N-(methylsulfonyl)benzamide] | > 1000
6 | CC(C)Oc1ncc(Oc2ccc(C(=O)NS(C)(=O)=O)cc2C#N)cc1Cl [Example 73, 4-[(5-chloro-6-isopropoxypyridin-3-yl)oxy]-3-cyano-N-(methylsulfonyl)benzamide] | 620
7 | CC(C)COc1ncc(Oc2ccc(C(=O)NS(C)(=O)=O)c(F)c2)cc1Cl [Example 74, 4-[(5-chloro-6-isobutoxypyridin-3-yl)oxy]-2-fluoro-N-(methylsulfonyl)benzamide] | 50
8 | CC(C)(Oc1ncc(Oc2cc(F)c(C(=O)NS(C)(=O)=O)cc2Cl)cc1Cl)C(F)(F)F [Example 76, 5-chloro-4-{[5-chloro-6-(2,2,2-trifluoro-1,1-dimethylethoxy)pyridin-3-yl]oxy}-2-fluoro-N-(methylsulfonyl)benzamide] | 9.4
9 | CS(=O)(=O)NC(=O)c1cc(Cl)c(Oc2cnc(OC(C(F)(F)F)C(F)(F)F)c(Cl)c2)cc1F [Example 77, 5-chloro-4-({5-chloro-6-[2,2,2-trifluoro-1-(trifluoromethyl)ethoxy]pyridin-3-yl}oxy)-2-fluoro-N-(methylsulfonyl)benzamide] | 15
10 | CC(C)Nc1ncc(Oc2cc(F)c(C(=O)NS(C)(=O)=O)cc2F)cc1Cl [Example 79, 4-{[5-chloro-6-(isopropylamino)pyridin-3-yl]oxy}-2,5-difluoro-N-(methylsulfonyl)benzamide] | 150
11 | CS(=O)(=O)NC(=O)c1cc(F)c(Oc2cnc(OC(CF)CF)c(Cl)c2)cc1F [Example 80, 4-({5-chloro-6-[2-fluoro-1-(fluoromethyl)ethoxy]pyridin-3-yl}oxy)-2,5-difluoro-N-(methylsulfonyl)benzamide] | 1500
12 | CC(C)Oc1ncc(Oc2ccc(C(=O)NS(C)(=O)=O)cc2Cl)cc1Cl [Example 82, 3-chloro-4-[(5-chloro-6-isopropoxypyridin-3-yl)oxy]-N-(methylsulfonyl)benzamide] | 42
13 | COc1ncc(Oc2ccc(C(=O)NS(C)(=O)=O)cc2Cl)cc1Cl [Example 83, 3-chloro-4-[(5-chloro-6-methoxypyridin-3-yl)oxy]-N-(methylsulfonyl)benzamide] | > 10000
14 | CC(C)Oc1ncc(Oc2ccc(C(=O)NS(C)(=O)=O)cc2)cc1Cl [Example 84, 4-[(5-chloro-6-isopropoxypyridin-3-yl)oxy]-N-(methylsulfonyl)benzamide] | 850
15 | COc1ncc(Oc2ccc(C(=O)NS(C)(=O)=O)cc2)cc1Cl [Example 85, 4-[(5-chloro-6-methoxypyridin-3-yl)oxy]-N-(methylsulfonyl)benzamide] | > 10000
16 | COc1cc(Oc2cnc(OC(C)C)c(Cl)c2)ccc1C(=O)NS(C)(=O)=O [Example 86, 4-[(5-chloro-6-isopropoxypyridin-3-yl)oxy]-2-methoxy-N-(methylsulfonyl)benzamide] | 7200
17 | CS(=O)(=O)NC(=O)c1cc(F)c(Oc2ccc(Cl)c3cccnc23)cc1F [Example 87, 4-[(5-chloroquinolin-8-yl)oxy]-2,5-difluoro-N-(methylsulfonyl)benzamide] | > 3000
18 | CS(=O)(=O)NC(=O)c1cc(F)c(Oc2cc(Cl)cc3cccnc23)cc1F [Example 88, 4-[(6-chloroquinolin-8-yl)oxy]-2,5-difluoro-N-(methylsulfonyl)benzamide] | > 3000
19 | COc1ccncc1Oc1cc(F)c(C(=O)NS(C)(=O)=O)cc1F [Example 89, 2,5-difluoro-4-(4-methoxypyridin-3-yloxy)-N-(methylsulfonyl)benzamide] | > 3000

Results, then the compound that gave them:

Row | IC50 [nM] | Compound
20 | > 3000 | CS(=O)(=O)NC(=O)c1cc(F)c(Oc2cccn3ccnc23)cc1F [Example 90, 2,5-difluoro-4-(imidazo[1,2-a]pyridin-8-yloxy)-N-(methylsulfonyl)benzamide]
21 | 680 | CS(=O)(=O)NC(=O)c1cc(Cl)c(Oc2cnc(C3CC3)c(Cl)c2)cc1Cl [Example 91, 2,5-Dichloro-4-(5-chloro-6-cyclopropylpyridin-3-yloxy)-N-(methylsulfonyl)benzamide]
22 | 50 | O=C(NS(=O)(=O)C1CC1)c1cc(Cl)c(Oc2cnc(C3CC3)c(Cl)c2)cc1F [Example 92, 5-chloro-4-(5-chloro-6-cyclopropylpyridin-3-yloxy)-N-(cyclopropylsulfonyl)-2-fluorobenzamide]
23 | 470 | CS(=O)(=O)NC(=O)c1cc(Cl)c(Cc2cnc(C3CC3)c(Cl)c2)cc1F [Example 93, 5-chloro-4-((5-chloro-6-cyclopropylpyridin-3-yl)methyl)-2-fluoro-N-(methylsulfonyl)benzamide]
24 | 830 | CC(C)Oc1ncc(Sc2cc(F)c(C(=O)NS(C)(=O)=O)cc2Cl)cc1Cl [Example 94, 5-chloro-4-[(5-chloro-6-isopropoxypyridin-3-yl)thio]-2-fluoro-N-(methylsulfonyl)benzamide]
25 | 37 | CS(=O)(=O)NC(=O)c1cc(Cl)c(Oc2cnc(N3CCC(F)(F)C3)c(Cl)c2)cc1F [Example 95, 5-chloro-4-(5-chloro-6-(3,3-difluoropyrrolidin-1-yl)pyridin-3-yloxy)-2-fluoro-N-(methylsulfonyl)benzamide]
26 | 73 | CS(=O)(=O)NC(=O)c1cc(Cl)c(Oc2cnc(N3CC(F)(F)C3)c(Cl)c2)cc1F [Example 96, 5-Chloro-4-(5-chloro-6-(3,3-difluoroazetidin-1-yl)pyridin-3-yloxy)-2-fluoro-N-(methylsulfonyl)benzamide]
27 | 12 | C[C@H](Oc1ncc(Oc2cc(F)c(C(=O)NS(C)(=O)=O)cc2Cl)cc1Cl)C(F)(F)F [Example 98, 5-chloro-4-({5-chloro-6-[(1S)-2,2,2-trifluoro-1-methylethoxy]pyridin-3-yl}oxy)-2-fluoro-N-(methylsulfonyl)benzamide]
28 | 15 | C[C@@H](Oc1ncc(Oc2cc(F)c(C(=O)NS(C)(=O)=O)cc2Cl)cc1Cl)C(F)(F)F [Example 99, 5-chloro-4-({5-chloro-6-[(1R)-2,2,2-trifluoro-1-methylethoxy]pyridin-3-yl}oxy)-2-fluoro-N-(methylsulfonyl)benzamide]
